“And” between values parts separate entries of the source, which are not always exact repeats. Equal entries are not always repeated.
Assays:
S. aureus [1] = experiment: Minimal inhibitory concentration (MIC) of PAR in solution, 24 h in MHB medium with S. aureus; format: cell-based, Staphylococcus aureus; settings: for times less active than PAR100 or PAR200 chains (from MICs in solution): per chain; for bacterial growth inhibition in solution: PAR 1 μM
Experimental: PAR with 10, 30, 100 or 200 arginine residues per chain were tested. Each PAR was incubated 24 h at 37° C. in 300 μL of MHB medium with S. aureus (A620=0.001). Pathogen growth of 0% corresponds to medium with antibiotics (and without PAR) and 100% to medium without PAR. Each value corresponds to the mean value of 3 individual experiments (3 samples per experiment and condition) and error bars correspond to standard deviations. For each concentration, the first column represents the normalized pathogen growth of S. aureus for PAR10, the 2nd column for PAR30, the third column for PAR100 and the fourth for PAR200.
Staphylococcus aureus (S. aureus, ATCC 25923) strains were used to assess the antibacterial properties of the test samples. Bacterial strain was cultured aerobically at 37° C. in a Mueller Hinton Broth (MHB) medium (Merck, Germany), pH 7.4. One colony was transferred to 10 mL of MHB medium and incubated at 37° C. for 20 h, to provide a final density of 10^6 CFU·mL^−1. To obtain bacteria in the mid logarithmic phase of growth, the absorbance at 620 nm of overnight culture was adjusted of 0.001.
In the following the inventors of the present invention wanted to further elucidate the underlying mechanism that confer to the coatings of the invention the strong inhibitory property on the surface and in the supernatant. As an example the (PAR30/HA)24 coating was further investigated. Accordingly, the minimal inhibitory concentration (MIC) of PAR in solution was determined using bacterial assay as described in Experimental Section. […] Finally for PAR at concentrations of 0.01 mg·mL^−1, inhibition of 100% was shown only for PAR30. Longer or shorter PAR chains (PAR10, PAR100 or PAR200) inhibits only partially (less than 40%) S. aureus growth. […] This reasoning is valid when PAR concentration values are expressed in mass (mg·mL^−1) thus it is related to the number of arginine monomers. However when the graph is plotted with concentrations in μM (and thus proportional in number of chains), which means that concentration is related to number of chains, different interpretation can be made (Data not shown). […] Moreover the MIC100 values obtained for PAR30, PAR100 or PAR200 ranges at very low concentrations (between 1 and 2 μM) which is remarkable when compared to well-known antimicrobial peptides (for example 30 μM for cateslytin with S. aureus, see Adv. Funct. Mater. 2013, 23, 4801-4809). PAR is thus a powerful candidate to fight against S. aureus.

[2] = Release of PAR-FITC from (PAR30/HA)24 into the supernatant; format: physicochemical; settings: after 24 h, from (PAR30/HA)24 built with PAR-FITC, 37° C.
Experimental: For the first experiment, a multilayer coating (PAR30/HA)24 was built by using PAR-FITC. Release experiments were performed at 37° C. during 24 h in presence of MHB medium or a S. aureus/MHB solution (A620=0.001). 300 μL of mineral oil were added on the top of the supernatant to prevent any evaporation during the monitoring. The release of PAR-FITC in solution was performed by measuring the fluorescence of the supernatant over time with a spectrofluorimeter (SAFAS Genius XC spectrofluorimeter, Monaco) with excitation/emission wavelength of 488/517 nm. Three samples were studied for each conditions.
In view of the absence of specific properties of PAR30 in solution compared to shorter or longer PAR chains, the antimicrobial abilities of PAR30/HA films should be related to the film property by itself. In this context, the inventors investigated if the bactericidal property of the film is due to the release of PAR30 chains from the multilayer into the solution or if bacteria need to come in contact with the film to be killed. For this purpose two types of experiments were performed. Using fluorescently labelled PAR30 chains we first determined the release of PAR30 chains into the solution containing solely MH medium with and without S. aureus. […] Finally, we also performed an experiment where bacteria were brought in contact with a (PAR30/HA)24 film for 24 hours. […]

[3] = Fluorescence recovery after photobleaching (FRAP) of PAR-FITC in (PAR/HA)24 multilayers; format: physicochemical; settings: PAR-FITC in (PAR/HA)24 multilayer, hydrochloride
Experimental: The diffusion coefficient, D, and the proportion of mobile molecules, p, was measured for (PAR/HA)24 multilayers containing PAR-FITC by performing photobleaching experiments (FRAP, Fluorescence Recovery After Photobleaching).
A glass slide coated with the multilayer was introduced in a home-made sample holder and immerged in 200 μl of Tris-NaCl buffer. One circular regions (4.4 μm in radius and referred as “R4” in an image of 35 μm×35 μm or 10.6 μm in radius and referred as “R10” in an image of 85 μm×85 μm) were exposed for 700 msec to the laser light set at its maximum power (λ=488 nm). Then, the recovery of the fluorescence in the bleached area was observed over time. Observations were carried out with a Zeiss LSM 710 microscope (Heidelberg, Germany) using a 20× objective (Zeiss, Plan Apochromat).
Then the inventors investigated if the bactericidal activity of the PAR30/HA multilayer is related to the mobility of these chains in the films. Indeed, it is known that the exponential character of a multilayer is related to the diffusion ability of at least one of its constituents in and out of the film during each deposition step. They first determined the mobility of the different chains, PAR10, PAR30, PAR100 and PAR200 in the (PAR/HA)24 multilayer by using FRAP method. […] Recovery of fluorescence appears very fast for PAR10 and PAR30 compare to PAR100 or PAR200. From these curves we can deduce the percentage of mobile chains over the timescale of the experiments. It clearly appears that PAR10 and PAR30 chains are more mobile (between 85 to 90% of mobile fraction) than the PAR100 (only 63% of mobile fraction). The largest chains PAR200 correspond to the slowest with about 12% of the population which is mobile (FIG. 8). Accordingly, the fraction of mobile chains dramatically decreases when the chain length increases from 30 to 100 or 200 residues.

S. aureus [4] = settings: Adv. Funct. Mater. 2013, 23, 4801-4809; cited from earlier work
[5] = PAR concentrations up to 0.04 mg·mL^−1

Substance	S. aureus growth inhibition in solution (S. aureus [1]; PAR 0.01 mg·mL^−1, hydrochloride) [%]	S. aureus growth inhibition in solution (in words) (S. aureus [1]; PAR 0.02 mg·mL^−1)	S. aureus growth inhibition in solution (in words) (S. aureus [1]; [5])	MIC90 (S. aureus [1]; in solution, S. aureus)	concentration needed for a similar effect (about 90% inhibition) (S. aureus [1]; in solution, S. aureus)	times less active than PAR100 or PAR200 chains (from MICs in solution) (S. aureus [1]; hydrochloride) [times]	PAR30 released into solution [2]	proportion of mobile PAR chains (mobile fraction) [3]	MIC of a well-known antimicrobial peptide, compared with MIC100 of PAR (S. aureus [4]) [µM]	bacterial growth inhibition in solution (S. aureus [1])	S. aureus growth inhibition in solution (S. aureus [1]; PAR 0.02 mg·mL^−1)
poly(I-arginine hydrochloride) [PAR30]	100	quasi total inhibition	totally inhibited	about 2 μM	about 10 μM	2	about 0.18 μM				
poly(I-arginine hydrochloride) [PAR10]		quasi total inhibition	totally inhibited		about 10 μM	10		~90%			
cateslytin									30		
poly(I-arginine hydrochloride) [PAR100]		quasi total inhibition	totally inhibited					63% and 70%		about 90%	
poly(I-arginine hydrochloride) [PAR200]			totally inhibited					about 12%		about 90%	about 45%
